From patent US8273775B2, “Non-steroidal brassinosteroid mimetic” (priority 2006, dated 2012)

Tests used:
AtMPK4 = biological target: T1, AtMPK4 (Arabidopsis thaliana, UniProt Q39024); experiment: Kinase assay with AtMPK4 and MBP as substrate; format: biochemical; details: 10 μM abrasin
T1 sequence (Q39024 1-376): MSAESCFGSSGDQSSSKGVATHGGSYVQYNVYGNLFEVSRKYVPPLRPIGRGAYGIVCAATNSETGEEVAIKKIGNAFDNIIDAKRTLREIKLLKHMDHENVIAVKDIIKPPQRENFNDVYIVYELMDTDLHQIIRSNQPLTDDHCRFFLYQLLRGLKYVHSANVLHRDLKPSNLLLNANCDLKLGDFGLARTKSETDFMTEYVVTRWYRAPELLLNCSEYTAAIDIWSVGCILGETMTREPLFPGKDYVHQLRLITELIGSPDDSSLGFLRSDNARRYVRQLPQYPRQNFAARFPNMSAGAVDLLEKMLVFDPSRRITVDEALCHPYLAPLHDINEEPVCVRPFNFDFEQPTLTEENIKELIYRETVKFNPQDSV
Description: (§1) Coomassie staining was used as a loading control. b, Autoradiography of kinase assays with nine ASKs with MBP as a substrate in the presence or absence of 10 μM abrasin. The second member of group IV, ASKκ, had no kinase activity and was not included in the analysis. c, Autoradiography of kinase assays with AtMPK4, AtMPK6 and MBP as a substrate (left) and with AtAUR1 kinase and histone H3 as a substrate (right) in the presence or absence of 10 μM abrasin.
(§2) For in vitro kinase assays, MBP, MBP-BES1, and MBP-bes1 (20 ng each) were incubated with GST-BIN2 or GST-BRI1 kinase (200 ng each) in 20 μl of kinase buffer (20 mM Tris [pH 7.5], 100 mM NaCl, and 12 mM MgCl2) and 10 μCi ^32P-γATP. After incubation at 37° C. for 40 min, the reactions were stopped by adding 20 μl of 2×SDS buffer and boiling at 94° C. for 5 min. Proteins were resolved by a PAGE gel and phosphorylation was detected by exposing the dried gel to X-ray film. […]
(§3) Besides BIN2, nine additional GSK-3 kinases (also designated ASKs for Arabidopsis SHAGGY-related kinases) divided into four subgroups (I-IV) have been identified in Arabidopsis (Jonak and Hirt, 2002; Yoo et al. 2006). To determine the specificity of abrasin, its effect on the kinase activity of all ASKs was analyzed with myelin basic protein (MBP) as a general substrate. […]

AtAUR1 = biological target: T2, AtAUR1 (Arabidopsis thaliana, UniProt Q9M077); experiment: Kinase assay with AtAUR1 and histone H3 as substrate; format: biochemical; details: 10 μM abrasin
T2 sequence (Q9M077 1-294): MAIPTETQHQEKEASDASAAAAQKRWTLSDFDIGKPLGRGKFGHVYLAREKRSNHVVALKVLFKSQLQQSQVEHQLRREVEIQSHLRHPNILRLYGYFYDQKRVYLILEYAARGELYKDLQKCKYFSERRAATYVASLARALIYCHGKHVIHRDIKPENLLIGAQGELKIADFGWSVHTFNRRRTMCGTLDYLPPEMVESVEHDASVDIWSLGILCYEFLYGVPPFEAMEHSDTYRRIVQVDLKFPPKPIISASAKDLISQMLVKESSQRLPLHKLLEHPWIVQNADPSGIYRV
Description: as §1, §2, §3

GST-BIN2 = biological target: T3, GST-BIN2 (Arabidopsis thaliana, UniProt Q39011); experiment: SPR analysis of binding to immobilized GST-BIN2
T3 sequence (Q39011 1-380): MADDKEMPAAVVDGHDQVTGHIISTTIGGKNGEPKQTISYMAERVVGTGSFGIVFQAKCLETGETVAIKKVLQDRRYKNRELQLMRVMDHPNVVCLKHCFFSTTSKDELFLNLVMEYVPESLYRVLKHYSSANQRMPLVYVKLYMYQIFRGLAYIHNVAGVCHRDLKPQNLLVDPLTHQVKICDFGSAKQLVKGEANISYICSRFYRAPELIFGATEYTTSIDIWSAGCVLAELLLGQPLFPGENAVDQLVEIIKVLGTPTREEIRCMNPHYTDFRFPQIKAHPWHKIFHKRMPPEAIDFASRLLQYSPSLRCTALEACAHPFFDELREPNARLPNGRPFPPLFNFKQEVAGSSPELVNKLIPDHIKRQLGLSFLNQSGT
Description: FIG. 13: Abrasin directly interacts with BIN2. SPR sensorgrams for abrasin binding to GST-BIN2 after injection of different abrasin concentrations as indicated. […] Reference and blank data are subtracted. The experiment was performed in triplicate. Biacore T100 was used to analyze interaction of abrasion with BIN2. Using amine coupling, purified GST-BIN2 was immobilized in the flow cell of a Series S CM5 Sensor Chip (Research Grade, Biacore AB). HBS-EP (Biacore AB) was used as running buffer, flow rate was set at 5 μl/min. The surface of the chip was activated by injecting a mixture of EDC (0.2 M) and NHS (0.05 M) for 10 min. Subsequently, 20 μg/ml GST-BIN2 in 10 mM sodium acetate buffer (pH 6.0) was injected for 20 min. The immobilization level of GST-BIN2 was≈20,000 RU. The chip was then flushed with 1 M ethanolamine (pH 8.5) for 10 min to deactivate the surface. A flow cell treated with a cycle of activation and deactivation without immobilized ligand was used as a reference. […] Different concentrations of abrasin were injected at a flow rate of 30 μl/min over the reference and the GST-BIN2 flow cell for 90 s, followed by 180 s of buffer flow (dissociation phase). Zero concentration samples were used as blanks. The flow cell temperature was set to 25° C.

[1] = tested on: cpd, det2-1, bri1-116 and bri1-301 mutants; experiment: Hypocotyl-elongation assay of dark-grown BR mutants; format: in vivo, Arabidopsis thaliana; details: grown in the dark, 50 μM abrasin
Description: FIG. 6: Rescue of dark-grown BL mutants after treatment with 50 μM of abrasin (I5).
For further phenotypical analysis, all plants were grown on vertically oriented square plates (Greiner Labortechnik, Austria) with solid medium derived from standard Murashige and Skoog medium under the same conditions. For the hypocotyl-elongation assay, plants were grown in the dark at 22° C. under the same conditions.

Structure (SMILES): O=C(O)CCC(=O)Nc1ccc(Br)cn1 [abrasin, 4-[(5-bromo-2-pyridinyl)amino]-4-oxobutanoic acid]
- effect on kinase activity (AtMPK4): no effect
- effect on kinase activity (AtAUR1): no effect
- concentration from which a clear SPR response starts (GST-BIN2): ≥ 10 µM
- Kd (GST-BIN2; 1:1 interaction model, 25° C.): 199 µM
- kd (GST-BIN2; 1:1 interaction model, 25° C.): 0.081 s⁻¹
- kon (GST-BIN2; 1:1 interaction model, 25° C., read-out: ka): 407 M⁻¹ s⁻¹
- hypocotyl length of dark-grown mutants [1]: all mutant lines had hypocotyls of normal length
